Some test systems named below: HT29 colon; SNB-19 CNS; UO-31 renal; SNB-75 CNS; M14 melanoma; TK-10 renal; RXF 393 renal; SK-MEL-28 melanoma; UACC-257 melanoma; UACC-62 melanoma.
What all share (assay): NCI tumour cell line growth inhibition, 48 h

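Cells were grown in 96-well plates and exposed to each compound for 48 hours at five concentrations; endpoints were interpolated linearly between bracketing concentrations, or set to the highest concentration if not reached. The concentration for 50% growth inhibition is given as GI50. TGI denotes the concentration required for complete inhibition of growth.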

For `Fc1ccc(Nc2nccc(-c3c(-c4ccc(C(F)(F)F)cc4)nn4ncccc34)n2)cc1F`, the GI50 in the assay on HT29 colon, in the assay with SNB-19 CNS, in the assay on UO-31 renal, in the assay with SNB-75 CNS, with M14 melanoma and with TK-10 renal was greater than 25 µM throughout. Further, the GI50 in the assay with RXF 393 renal, in the assay on SK-MEL-28 melanoma, with UACC-257 melanoma and with UACC-62 melanoma was greater than 25 µM in each case. In addition, the TGI in the assay on HT29 colon, in the assay on SNB-19 CNS, with UO-31 renal, in the assay on SNB-75 CNS, in the assay on M14 melanoma and with TK-10 renal was greater than 25 µM throughout. For the same molecule, the TGI in the assay on RXF 393 renal, with SK-MEL-28 melanoma, in the assay with UACC-257 melanoma and in the assay on UACC-62 melanoma was greater than 25 µM in each case.

Turning to `CCOc1ccc(NC(=O)CC2SC(N)=NC2=O)cc1` (stereo not given), the TGI in the assay with HT29 colon, in the assay on SNB-19 CNS, with UO-31 renal, with SNB-75 CNS, with M14 melanoma and in the assay with TK-10 renal was greater than 100 µM throughout. The TGI in the assay on RXF 393 renal, in the assay on SK-MEL-28 melanoma, in the assay on UACC-257 melanoma and in the assay on UACC-62 melanoma was greater than 100 µM throughout.

Regarding `COc1ccc2c(c1)C(=O)c1c-2n(CCCN2CCOCC2)c(=O)c2ccccc12`, the GI50 is 2.19 µM in the assay on HT29 colon; 2.65 µM in the assay with SNB-19 CNS; 0.799 µM in the assay on UO-31 renal; 3.86 µM with SNB-75 CNS; 2.85 µM with M14 melanoma; 4.62 µM in the assay on TK-10 renal. Moreover, the GI50 is 3.22 µM with RXF 393 renal, 11.2 µM with SK-MEL-28 melanoma, 4.46 µM in the assay with UACC-257 melanoma and 1.76 µM in the assay on UACC-62 melanoma. Moreover, the TGI with HT29 colon is greater than 45 µM; in the assay on SNB-19 CNS it was 30.9 µM; in the assay on UO-31 renal, 3.26 µM; in the assay on SNB-75 CNS, 23.1 µM; with M14 melanoma it was 7.87 µM; with TK-10 renal, 57.2 µM. Also, the TGI was greater than 21.6 µM with RXF 393 renal, greater than 100 µM in the assay on SK-MEL-28 melanoma, greater than 31.5 µM in the assay on UACC-257 melanoma and 5.87 µM with UACC-62 melanoma.

As for `Cc1c(C)c2ccc(OC/C=C3\CCC(=O)O3)cc2oc1=O`, the GI50 in the assay with HT29 colon is 16.6 µM; in the assay on SNB-19 CNS, 17.2 µM; in the assay on UO-31 renal, 10.6 µM; with SNB-75 CNS, 12.3 µM; with M14 melanoma, 11.4 µM; in the assay with TK-10 renal it was 9.79 µM. Moreover, the GI50 in the assay with RXF 393 renal was 14.2 µM; in the assay with SK-MEL-28 melanoma, 14.3 µM; in the assay with UACC-257 melanoma it was 15.9 µM; in the assay on UACC-62 melanoma, 14.5 µM. For the same molecule, the TGI turned out to be 35.3 µM in the assay on HT29 colon; 35.9 µM in the assay with SNB-19 CNS; 22.4 µM with UO-31 renal; 24.8 µM in the assay with SNB-75 CNS; 24.7 µM in the assay on M14 melanoma; 23 µM in the assay with TK-10 renal. In addition, the TGI in the assay with RXF 393 renal was 28.2 µM; in the assay on SK-MEL-28 melanoma, 28.1 µM; in the assay on UACC-257 melanoma it was 31.3 µM; with UACC-62 melanoma it was 28.3 µM.

Consider `Clc1ccc(CN2COc3c(cc(Cl)c4cccnc34)C2)cc1`, for which the TGI came out at 24.7 µM with HT29 colon; 16 µM in the assay on SNB-19 CNS; 5.51 µM with UO-31 renal; 11 µM in the assay on SNB-75 CNS; 3.82 µM in the assay on M14 melanoma; 13.4 µM with TK-10 renal. Moreover, the TGI with RXF 393 renal stood at 5.86 µM; with SK-MEL-28 melanoma, 7.38 µM; in the assay with UACC-257 melanoma it was 9.13 µM; in the assay on UACC-62 melanoma it was 4.11 µM.

Take `Fc1ccc(Nc2nc(NCCNc3ccnc4cc(Cl)ccc34)nc(N3CCOCC3)n2)cc1`: the GI50 in the assay on HT29 colon is 2.27 µM; in the assay with SNB-19 CNS, 12.4 µM; with UO-31 renal, 3.52 µM; in the assay on SNB-75 CNS it was 3.13 µM; with M14 melanoma, 1.94 µM; with TK-10 renal it was 10.3 µM. Besides, the GI50 is 1.89 µM in the assay with RXF 393 renal, 1.83 µM in the assay on SK-MEL-28 melanoma, 1.9 µM in the assay with UACC-257 melanoma and 2.65 µM in the assay on UACC-62 melanoma. Moreover, the TGI in the assay with HT29 colon was 5.77 µM; in the assay on SNB-19 CNS it was 25.9 µM; in the assay on UO-31 renal it was 16.5 µM; in the assay on SNB-75 CNS it was 16.2 µM; with M14 melanoma, 3.66 µM; with TK-10 renal it was 22.7 µM. Moreover, the TGI in the assay on RXF 393 renal came to 6.76 µM; with SK-MEL-28 melanoma, 3.25 µM; in the assay on UACC-257 melanoma, 3.65 µM; in the assay with UACC-62 melanoma, 7.35 µM.

In the case of `CCN1C(=O)N(CC)C2C1NN=c1s/c(=C3\C(=O)N(C)c4ccccc43)c(=O)n12` (stereo not given), the GI50 in the assay on HT29 colon is 0.562 µM; in the assay on SNB-19 CNS, 2.89 µM; in the assay with UO-31 renal, 1.28 µM; in the assay with SNB-75 CNS, 0.397 µM; in the assay on M14 melanoma, 0.803 µM; with TK-10 renal it was 11.2 µM. In addition, the GI50 was 0.587 µM with RXF 393 renal, 3.09 µM with SK-MEL-28 melanoma, 4.2 µM in the assay with UACC-257 melanoma and 0.431 µM with UACC-62 melanoma. In addition, the TGI with HT29 colon is greater than 100 µM; with SNB-19 CNS it was greater than 100 µM; in the assay on UO-31 renal, greater than 100 µM; in the assay on SNB-75 CNS it was 20.3 µM; in the assay on M14 melanoma, greater than 58.3 µM; in the assay with TK-10 renal, greater than 74.3 µM. Further, the TGI in the assay with RXF 393 renal was 4.81 µM; with SK-MEL-28 melanoma, greater than 100 µM; in the assay on UACC-257 melanoma it was greater than 100 µM; in the assay on UACC-62 melanoma, greater than 100 µM.

Turning to `O=c1[nH]cc(OCC(F)(F)F)c(=O)[nH]1`, the TGI in the assay with HT29 colon, in the assay with SNB-19 CNS, in the assay with UO-31 renal, with SNB-75 CNS, in the assay with M14 melanoma and in the assay with TK-10 renal was greater than 100 µM in each case. Moreover, the TGI in the assay with RXF 393 renal, in the assay on SK-MEL-28 melanoma, in the assay on UACC-257 melanoma and in the assay on UACC-62 melanoma was greater than 100 µM throughout.

On to `COc1cc(Oc2c(O)c(C)c(OC)c(C(C)=O)c2O)c(C(C)=O)c(O)c1C`, for which the TGI is greater than 100 µM with HT29 colon; greater than 100 µM with SNB-19 CNS; greater than 100 µM in the assay on UO-31 renal; greater than 100 µM in the assay with SNB-75 CNS; greater than 100 µM with M14 melanoma; 86.7 µM in the assay on TK-10 renal. For the same molecule, the TGI in the assay on RXF 393 renal, in the assay with SK-MEL-28 melanoma, in the assay on UACC-257 melanoma and in the assay with UACC-62 melanoma was greater than 100 µM in each case.
